The source of these data is patent US10077436B2, “Beta-glucosidase enzymes for increased biomass saccharification” (Edeniq, Inc., priority 2013, dated 2018).

In the assay the target is T1, Aspergillus niger beta-glucosidase (CAB75696.1, SEQ ID NO:2) improved variant yEdQ885-BG (Aspergillus niger, UniProt Q9P8F4, Y363C/Y375F/Y610F).
T1 construct: strain yEdQ885, BG acid/base mutant #8
T1 sequence (Q9P8F4 20-860 Y363C/Y375F/Y610F): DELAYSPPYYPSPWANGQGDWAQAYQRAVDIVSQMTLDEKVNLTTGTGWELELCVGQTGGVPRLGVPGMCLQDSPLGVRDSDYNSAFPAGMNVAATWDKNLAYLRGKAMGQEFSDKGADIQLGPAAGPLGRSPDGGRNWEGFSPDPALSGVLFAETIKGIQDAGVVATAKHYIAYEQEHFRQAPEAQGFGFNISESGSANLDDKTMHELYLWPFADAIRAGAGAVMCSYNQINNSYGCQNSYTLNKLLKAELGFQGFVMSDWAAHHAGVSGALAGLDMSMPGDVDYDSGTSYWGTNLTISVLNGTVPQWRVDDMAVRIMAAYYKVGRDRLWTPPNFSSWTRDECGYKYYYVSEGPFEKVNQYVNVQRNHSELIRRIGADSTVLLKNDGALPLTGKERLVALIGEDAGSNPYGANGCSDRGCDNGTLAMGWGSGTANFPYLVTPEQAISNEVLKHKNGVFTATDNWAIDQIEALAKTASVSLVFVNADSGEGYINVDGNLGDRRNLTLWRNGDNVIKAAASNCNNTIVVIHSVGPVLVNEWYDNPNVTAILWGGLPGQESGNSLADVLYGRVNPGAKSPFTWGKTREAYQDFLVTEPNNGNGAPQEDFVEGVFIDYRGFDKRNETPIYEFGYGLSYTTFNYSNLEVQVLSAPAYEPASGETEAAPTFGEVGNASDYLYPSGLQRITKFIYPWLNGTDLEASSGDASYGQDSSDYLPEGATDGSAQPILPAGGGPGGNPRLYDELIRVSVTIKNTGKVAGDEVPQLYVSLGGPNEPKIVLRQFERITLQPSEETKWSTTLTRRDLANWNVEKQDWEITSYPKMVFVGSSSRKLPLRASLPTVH
Description: BG kinetics, pNPG hydrolysis assay with glucose as competitive inhibitor, yEdQ885-BG. It is filed as biochemical. An excerpt:
The beta-glucosidase (BG) gene from Aspergillus niger (Accession #CAB75696.1) was integrated into the TR3 yeast background at the T4U3 genomic site.
High resolution enzyme assays and kinetic testing comparing the beta-glucosidases described herein and commercial enzyme preparations were pursued to more clearly quantify differences in mutant BG enzymes compared to the wild type BG enzyme. Based on data presented herein, BG mutant YEdQ885 was selected for further analysis and compared to the BG activity present in commercial preparations of SP188 (Novozymes) and Accellerase® BG (DuPont) as well as wild type BG. […]
BG activity assay using pNPG is one of the two commonly used standard assays to measure BG activity, which utilizes hydrolysis of p-nitrophenyl-β-D-glucopyranoside (pNPG) by BG into a yellow colored product, p-nitrophenol (pNP), that has a strong absorbance at 405 nm. […] The reaction was then terminated by adding 100 μL of 0.25 M sodium carbonate, and the amount of pNP produced was determined by measuring absorbance at 405 nm using a predetermined calibration curve. […]
To determine the kinetic properties, a competitive inhibition mechanism was hypothesized as proposed in the literature (Chauve et al, 2010; Krogh et al, 2010). […] The turnover number, Kcat, can be calculated by Equation (2), where [Et] is the total amount of enzyme. […]

Structures are written as SMILES.

Regarding `OC[C@H]1OC(O)[C@H](O)[C@@H](O)[C@@H]1O` (some centres unmarked) [glucose], the affinity corresponds to a Ki of 2.19 ± 0.1 mM. For the same molecule, the Km/Ki (inhibitor influence, Km for pNPG / Ki for glucose, pH 5.0, 50° C.) is recorded as 0.29.
